In patent US10472341B2, “Bicyclic tetrahydrothiazepine derivatives useful for the treatment of neoplastic and/or infectious diseases” (APEIRON BIOLOGICS AG, priority 2015, dated 2019):

Tests used:
[1] = system: NK cells & K562 leukemia cells; assay: NK cells alone or in co-culture with K562 leukemia cells: IFN-gamma, TNF-alpha, granzyme, CD25+CD69+; format: cell-based, human; settings: for production of IFN-gamma and TNF-alpha: NK cells in co-culture with K562 leukemia cells; for enhancement of IFN-gamma and TNF-alpha production: NK cells in the absence of tumor cells
Protocol: Isolated PBMCs, NK cells or CD8 positive cells were plated in Xvivo medium at 1.5*10^5 cells per in 96 well culture plates in the presence of 0.3*10^4 tumor cells where indicated. Cytokine secretion was determined by ELISA, immune cell activation (using Beckman-Coulter Abs CD25-PC5, CD69-PC7), cell viability and numbers by flow cytometry (Beckman-Coulter FC500 or Gallios) using 7-AAD exclusion as criterion for living cells. One of the physiological functions of NK cells in anti-tumor immunity is the recognition and destruction of tumor cells that have a low expression of MHC-molecules, thus avoiding recognition by CD8 T cells. Downregulation of MHC molecules is often actively mediated by an infecting virus or occurs during development of malignant neoplasms. The […] leukemia cell line expresses only very low amounts of MHC-molecules and thus is often used as a model system to investigate anti-tumor NK cell reactivity. NK cells were isolated from PBMCs and were incubated with and without compounds, either alone or in co-culture with K562 leukemia cells.

[2] = system: CD8 T cells; assay: CD8 T cell viability (number of living cells) with or without M21 cells; format: cell-based, human
Protocol: Isolated PBMCs, NK cells or CD8 positive cells were plated in Xvivo medium at 1.5*10^5 cells per in 96 well culture plates in the presence of 0.3*10^4 tumor cells where indicated. Cytokine secretion was determined by ELISA, immune cell activation (using Beckman-Coulter Abs CD25-PC5, CD69-PC7), cell viability and numbers by flow cytometry (Beckman-Coulter FC500 or Gallios) using 7-AAD exclusion as criterion for living cells. CD8-positive immune cells were isolated from PBMCs and were incubated with and without compound example 67, either alone or in co-culture with M21 melanoma cells.

## CCCCNC(=O)c1ccc2c(c1)N(Cc1ccc(OC(F)(F)F)cc1)C(=O)[C@@H](N)CS2(=O)=O.Cl [Example 67, (3R)-3-amino-N-butyl-1,1,4-trioxo-5-{[4-(trifluoromethoxy)phenyl]methyl}-2,3,4,5-tetrahydro-1λ^6,5-benzothiazepine-7-carboxamide hydrochloride]
[1]; 0.03 μM, NK cells & K562
  IFN-gamma [ng/ml] Avg: 7.47 ng/mL
  TNF-alpha [ng/ml] avg: 0.21 ng/mL
[1]; 0.03 μM, NK cells only
  IFN-gamma [ng/ml] Avg: below
  TNF-alpha [ng/ml] avg: below
[1]; 0.1 μM, NK cells & K562
  IFN-gamma [ng/ml] Avg: 10.14 ng/mL
  TNF-alpha [ng/ml] avg: 0.26 ng/mL
[1]; 0.1 μM, NK cells only
  IFN-gamma [ng/ml] Avg: below
  TNF-alpha [ng/ml] avg: below
[1]; 0.3 μM, NK cells & K562
  IFN-gamma [ng/ml] Avg: 11.24 ng/mL
  TNF-alpha [ng/ml] avg: 0.33 ng/mL
[1]; 0.3 μM, NK cells only
  IFN-gamma [ng/ml] Avg: below
  TNF-alpha [ng/ml] avg: below
[1]; 1 μM, NK cells & K562
  IFN-gamma [ng/ml] Avg: 16.40 ng/mL
  TNF-alpha [ng/ml] avg: 0.57 ng/mL
[1]; 1 μM, NK cells only
  IFN-gamma [ng/ml] Avg: below
  TNF-alpha [ng/ml] avg: below
[1]; 3 μM, NK cells & K562
  IFN-gamma [ng/ml] Avg: 17.80 ng/mL
  TNF-alpha [ng/ml] avg: 0.58 ng/mL
[1]; 3 μM, NK cells only
  IFN-gamma [ng/ml] Avg: below
  TNF-alpha [ng/ml] avg: below
[1]; 10 μM, NK cells & K562
  IFN-gamma [ng/ml] Avg: 22.65 ng/mL
  TNF-alpha [ng/ml] avg: 0.80 ng/mL
[1]; 10 μM, NK cells only
  IFN-gamma [ng/ml] Avg: below
  TNF-alpha [ng/ml] avg: below
[1]; 30 μM, NK cells & K562
  IFN-gamma [ng/ml] Avg: 19.98 ng/mL
  TNF-alpha [ng/ml] avg: 0.79 ng/mL
[1]; 30 μM, NK cells only
  IFN-gamma [ng/ml] Avg: below
  TNF-alpha [ng/ml] avg: below
[1]; NK cells & K562, 0.03 μM
  CD25+CD69+: 6.90 % gated
  Granzyme: 0.65 ng/mL
[1]; NK cells & K562, 0.1 μM
  CD25+CD69+: 8.44 % gated
  Granzyme: 0.93 ng/mL
[1]; NK cells & K562, 0.3 μM
  CD25+CD69+: 9.68 % gated
  Granzyme: 1.01 ng/mL
[1]; NK cells & K562, 1 μM
  CD25+CD69+: 18.80 % gated
  Granzyme: 1.47 ng/mL
[1]; NK cells & K562, 3 μM
  CD25+CD69+: 21.66 % gated
  Granzyme: 1.62 ng/mL
[1]; NK cells & K562, 10 μM
  CD25+CD69+: 31.98 % gated
  Granzyme: 2.52 ng/mL
[1]; NK cells & K562, 30 μM
  CD25+CD69+: 35.89 % gated
  Granzyme: 2.43 ng/mL
[1]
  production of IFN-gamma and TNF-alpha: enhanced production of both cytokines specifically upon tumor cell contact
  enhancement of IFN-gamma and TNF-alpha production: such effect was not detected in the absence of tumor cells
[1]; NK cells only, 0.03 μM
  CD25+CD69+: 0.05 % gated
  Granzyme: 0.08 ng/mL
[1]; NK cells only, 0.1 μM
  CD25+CD69+: 0.06 % gated
  Granzyme: 0.09 ng/mL
[1]; NK cells only, 0.3 μM
  CD25+CD69+: 0.15 % gated
  Granzyme: 0.08 ng/mL
[1]; NK cells only, 1 μM
  CD25+CD69+: 0.39 % gated
  Granzyme: 0.06 ng/mL
[1]; NK cells only, 3 μM
  CD25+CD69+: 0.47 % gated
  Granzyme: 0.12 ng/mL
[1]; NK cells only, 10 μM
  CD25+CD69+: 0.95 % gated
  Granzyme: 0.15 ng/mL
[1]; NK cells only, 30 μM
  CD25+CD69+: 1.24 % gated
  Granzyme: 0.25 ng/mL
[2]; 0.03 μM, CD8 cells & M21
  CD8 T cell viability [Number of Living Cells] average: 22933.00 Number of Living Cells
[2]; 0.03 μM, CD8 only
  CD8 T cell viability [Number of Living Cells] average: 23523.00 Number of Living Cells
[2]; 0.1 μM, CD8 cells & M21
  CD8 T cell viability [Number of Living Cells] average: 23942.33 Number of Living Cells
[2]; 0.1 μM, CD8 only
  CD8 T cell viability [Number of Living Cells] average: 24094.33 Number of Living Cells
[2]; 0.3 μM, CD8 cells & M21
  CD8 T cell viability [Number of Living Cells] average: 23944.67 Number of Living Cells
[2]; 0.3 μM, CD8 only
  CD8 T cell viability [Number of Living Cells] average: 23739.00 Number of Living Cells
[2]; 1 μM, CD8 cells & M21
  CD8 T cell viability [Number of Living Cells] average: 24569.67 Number of Living Cells
[2]; 1 μM, CD8 only
  CD8 T cell viability [Number of Living Cells] average: 23066.67 Number of Living Cells
[2]; 3 μM, CD8 cells & M21
  CD8 T cell viability [Number of Living Cells] average: 24633.67 Number of Living Cells
[2]; 3 μM, CD8 only
  CD8 T cell viability [Number of Living Cells] average: 23975.33 Number of Living Cells
[2]; 10 μM, CD8 cells & M21
  CD8 T cell viability [Number of Living Cells] average: 24006.33 Number of Living Cells
[2]; 10 μM, CD8 only
  CD8 T cell viability [Number of Living Cells] average: 25522.67 Number of Living Cells
[2]; CD8 / M21 cultures
  number of CD8 T cells; number of tumor cells in the absence of CD8 T cells: neither the number of CD8 T cells nor the number of tumor cells in the absence of CD8 T cells was substantially modulated

## CC(C)NC(=O)c1cc2c(cc1F)S(=O)(=O)C[C@H](N)C(=O)N2Cc1ccc(Cl)cc1.Cl [Example 77, (3R)-3-amino-5-[(4-chlorophenyl)methyl]-8-fluoro-1,1,4-trioxo-N-(propan-2-yl)-2,3,4,5-tetrahydro-1λ^6,5-benzothiazepine-7-carboxamide hydrochloride]
[1]; 0.03 μM, NK cells & K562
  IFN-gamma [ng/ml] Avg: 2.20 ng/mL
  TNF-alpha [ng/ml] avg: 0.08 ng/mL
[1]; 0.03 μM, NK cells only
  IFN-gamma [ng/ml] Avg: below
  TNF-alpha [ng/ml] avg: below
[1]; 0.1 μM, NK cells & K562
  IFN-gamma [ng/ml] Avg: 2.38 ng/mL
  TNF-alpha [ng/ml] avg: 0.11 ng/mL
[1]; 0.1 μM, NK cells only
  IFN-gamma [ng/ml] Avg: below
  TNF-alpha [ng/ml] avg: below
[1]; 0.3 μM, NK cells & K562
  IFN-gamma [ng/ml] Avg: 6.06 ng/mL
  TNF-alpha [ng/ml] avg: 0.19 ng/mL
[1]; 0.3 μM, NK cells only
  IFN-gamma [ng/ml] Avg: below
  TNF-alpha [ng/ml] avg: below
[1]; 1 μM, NK cells & K562
  IFN-gamma [ng/ml] Avg: 11.75 ng/mL
  TNF-alpha [ng/ml] avg: 0.34 ng/mL
[1]; 1 μM, NK cells only
  IFN-gamma [ng/ml] Avg: below
  TNF-alpha [ng/ml] avg: below
[1]; 3 μM, NK cells & K562
  IFN-gamma [ng/ml] Avg: 12.11 ng/mL
  TNF-alpha [ng/ml] avg: 0.47 ng/mL
[1]; 3 μM, NK cells only
  IFN-gamma [ng/ml] Avg: below
  TNF-alpha [ng/ml] avg: below
[1]; 10 μM, NK cells & K562
  IFN-gamma [ng/ml] Avg: 17.15 ng/mL
  TNF-alpha [ng/ml] avg: 0.57 ng/mL
[1]; 10 μM, NK cells only
  IFN-gamma [ng/ml] Avg: below
  TNF-alpha [ng/ml] avg: below
[1]; 30 μM, NK cells & K562
  IFN-gamma [ng/ml] Avg: 19.12 ng/mL
  TNF-alpha [ng/ml] avg: 0.70 ng/mL
[1]; 30 μM, NK cells only
  IFN-gamma [ng/ml] Avg: below
  TNF-alpha [ng/ml] avg: below
[1]; NK cells & K562, 0.03 μM
  CD25+CD69+: 1.77 % gated
  Granzyme: 0.48 ng/mL
[1]; NK cells & K562, 0.1 μM
  CD25+CD69+: 2.29 % gated
  Granzyme: 0.52 ng/mL
[1]; NK cells & K562, 0.3 μM
  CD25+CD69+: 4.44 % gated
  Granzyme: 0.68 ng/mL
[1]; NK cells & K562, 1 μM
  CD25+CD69+: 10.74 % gated
  Granzyme: 0.90 ng/mL
[1]; NK cells & K562, 3 μM
  CD25+CD69+: 13.55 % gated
  Granzyme: 1.15 ng/mL
[1]; NK cells & K562, 10 μM
  CD25+CD69+: 17.81 % gated
  Granzyme: 1.41 ng/mL
[1]; NK cells & K562, 30 μM
  CD25+CD69+: 25.06 % gated
  Granzyme: 2.12 ng/mL
[1]
  production of IFN-gamma and TNF-alpha: enhanced production of both cytokines specifically upon tumor cell contact
  enhancement of IFN-gamma and TNF-alpha production: such effect was not detected in the absence of tumor cells
[1]; NK cells only, 0.03 μM
  CD25+CD69+: 0.01 % gated
  Granzyme: 0.08 ng/mL
[1]; NK cells only, 0.1 μM
  CD25+CD69+: 0.02 % gated
  Granzyme: 0.06 ng/mL
[1]; NK cells only, 0.3 μM
  CD25+CD69+: 0.05 % gated
  Granzyme: 0.08 ng/mL
[1]; NK cells only, 1 μM
  CD25+CD69+: 0.15 % gated
  Granzyme: 0.05 ng/mL
[1]; NK cells only, 3 μM
  CD25+CD69+: 0.24 % gated
  Granzyme: 0.05 ng/mL
[1]; NK cells only, 10 μM
  CD25+CD69+: 0.46 % gated
  Granzyme: 0.10 ng/mL
[1]; NK cells only, 30 μM
  CD25+CD69+: 0.95 % gated
  Granzyme: 0.16 ng/mL
